Laboratory results as given in article PMC5224969 (ChemMedChem, 2016).
Read-outs that look alike come from different tables or passages of the source.

What was measured:
Panc-1 cells = assay: MTT cell viability assay, Panc-1; type: cell-based, human
BV-173 cells = assay: MTT cell viability assay, BV-173; type: cell-based, human; details: read-out: IC50 BV-173
K562 cells = assay: MTT cell viability assay, K562; type: cell-based, human; details: read-out: IC50 K562
Src [1] = biological target: T1, Src (Homo sapiens, UniProt P12931); assay: standard P32 kinase assay, IC50, Src catalytic domain; type: biochemical; details: for Net change in IC50 (%Dasatinib) Src: compared to dasatinib; for IC50: read-out: IC50 Src, P32 kinase assay, polyE4Y substrate, 200 μM ATP
Csk = Csk (Homo sapiens, UniProt P41240); assay: standard P32 kinase assay, IC50, Csk; type: biochemical; details: for Net change in IC50 (%Dasatinib) Csk: compared to dasatinib; for IC50: read-out: IC50 Csk, P32 kinase assay, polyE4Y substrate, 200 μM ATP
Abl [2] = biological target: T2, Abl (Homo sapiens, UniProt P00519); assay: standard P32 kinase assay, IC50, Abl; type: biochemical; details: for Net change in IC50 (%Dasatinib) Abl: compared to dasatinib; for IC50: read-out: IC50 Abl, P32 kinase assay, CrkL substrate, 200 μM ATP
[3] = tested on: PTK panel (Abl, Csk, Src); assay: P32 kinase assay, average over the PTK panel; type: biochemical; details: average of Abl, compared to dasatinib
Abl [4] = biological target: T2, Abl; assay: screening at a fixed concentration against Abl; type: biochemical; details: fixed concentration 250 pM
Src [5] = biological target: T1, Src; assay: screening at a fixed concentration against Src; type: biochemical; details: fixed concentration 250 pM
[6] = stability in mouse plasma, LC/MS/MS; type: in vitro ADME

T2 sequence (P00519 whole entry, species assumed): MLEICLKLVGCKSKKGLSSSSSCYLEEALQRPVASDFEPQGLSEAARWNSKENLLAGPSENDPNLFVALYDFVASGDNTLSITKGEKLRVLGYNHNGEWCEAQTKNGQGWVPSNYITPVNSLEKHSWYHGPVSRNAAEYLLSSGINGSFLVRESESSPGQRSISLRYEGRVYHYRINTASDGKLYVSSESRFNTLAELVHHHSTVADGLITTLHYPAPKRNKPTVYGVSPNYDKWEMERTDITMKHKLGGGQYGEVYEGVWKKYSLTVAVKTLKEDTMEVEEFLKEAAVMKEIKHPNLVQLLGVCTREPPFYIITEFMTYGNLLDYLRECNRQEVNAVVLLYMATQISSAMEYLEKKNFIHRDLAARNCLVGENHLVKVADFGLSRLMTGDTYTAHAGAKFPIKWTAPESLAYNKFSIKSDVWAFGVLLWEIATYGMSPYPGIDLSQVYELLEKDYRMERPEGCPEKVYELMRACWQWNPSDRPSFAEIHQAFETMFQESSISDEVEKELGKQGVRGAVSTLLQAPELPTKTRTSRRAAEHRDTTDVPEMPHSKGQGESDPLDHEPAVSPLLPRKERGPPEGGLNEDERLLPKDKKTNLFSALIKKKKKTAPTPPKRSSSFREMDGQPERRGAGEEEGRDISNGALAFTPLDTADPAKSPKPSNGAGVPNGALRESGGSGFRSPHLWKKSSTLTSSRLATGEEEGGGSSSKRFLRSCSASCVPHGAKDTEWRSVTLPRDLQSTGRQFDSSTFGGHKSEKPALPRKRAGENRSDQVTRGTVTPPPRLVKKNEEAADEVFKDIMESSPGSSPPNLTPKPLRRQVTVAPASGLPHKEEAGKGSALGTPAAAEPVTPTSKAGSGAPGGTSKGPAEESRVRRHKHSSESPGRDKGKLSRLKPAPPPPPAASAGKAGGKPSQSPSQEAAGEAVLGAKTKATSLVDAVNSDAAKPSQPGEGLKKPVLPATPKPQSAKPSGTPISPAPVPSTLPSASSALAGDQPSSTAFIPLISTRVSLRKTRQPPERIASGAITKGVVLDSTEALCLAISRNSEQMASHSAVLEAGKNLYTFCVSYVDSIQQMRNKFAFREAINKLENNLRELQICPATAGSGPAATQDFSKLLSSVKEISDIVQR
Sequence of Csk (P41240 whole entry, species assumed): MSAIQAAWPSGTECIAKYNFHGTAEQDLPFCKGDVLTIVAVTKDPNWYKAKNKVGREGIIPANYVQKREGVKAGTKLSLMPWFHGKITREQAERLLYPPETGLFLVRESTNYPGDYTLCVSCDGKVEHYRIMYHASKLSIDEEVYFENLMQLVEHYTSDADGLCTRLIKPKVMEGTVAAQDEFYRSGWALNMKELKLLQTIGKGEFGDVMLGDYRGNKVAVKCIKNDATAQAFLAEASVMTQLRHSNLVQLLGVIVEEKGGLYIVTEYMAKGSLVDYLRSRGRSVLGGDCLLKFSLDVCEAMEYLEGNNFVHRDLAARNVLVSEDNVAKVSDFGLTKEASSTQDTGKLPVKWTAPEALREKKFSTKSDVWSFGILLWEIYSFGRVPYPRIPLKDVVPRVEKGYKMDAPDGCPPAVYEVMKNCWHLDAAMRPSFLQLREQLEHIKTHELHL
T1 sequence (P12931 270-523 limits assumed, species assumed): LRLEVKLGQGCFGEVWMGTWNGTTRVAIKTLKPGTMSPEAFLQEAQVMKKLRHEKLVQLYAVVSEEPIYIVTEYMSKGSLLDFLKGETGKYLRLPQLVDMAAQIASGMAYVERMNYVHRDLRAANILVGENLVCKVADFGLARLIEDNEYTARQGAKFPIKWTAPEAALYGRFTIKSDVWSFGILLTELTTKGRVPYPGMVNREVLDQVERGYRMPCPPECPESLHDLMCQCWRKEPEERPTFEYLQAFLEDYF

Row | SMILES | IC50 (Panc-1 cells; Homo sapiens, PANC-1, 72 h, read-out: IC50 Panc-1) [nM] | IC50 (BV-173 cells; Homo sapiens, BV-173, 72 h) [nM] | IC50 (K562 cells; Homo sapiens, K562, 72 h) [nM] | Net change in IC50 (%Dasatinib) Src (Src [1]) [%] | IC50 (Src [1]) [nM] | Selectivity C/A (ratio of IC50 Csk over Abl) (Csk) | Selectivity C/S (ratio of IC50 Csk over Src) (Csk) | Net change in IC50 (%Dasatinib) Csk (Csk) [%] | IC50 (Csk) [nM] | Selectivity A/S (ratio of IC50 Abl over Src) (Abl [2]) | Net change in IC50 (%Dasatinib) Abl (Abl [2]) [%] | IC50 (Abl [2]) [nM] | Net change in IC50 (%Dasatinib) Avg [3] [%] | IC50 Panc-1 (Panc-1 cells; MTT, 72 h) | inhibition relative to dasatinib, Abl (Abl [4]) | IC50 (BV-173 cells; MTT, 72 h) [nM] | inhibition relative to dasatinib, Src (Src [5]) | stability in mouse plasma ([6]; 0, 15, 30, 60, 120 min, dasatinib formation monitored) | T1/2 in mouse plasma ([6]; 0-120 min incubation) [min] | IC50 (K562 cells; MTT, 72 h) [nM]
1 | Cc1nc(Nc2ncc(C(=O)Nc3c(C)cccc3Cl)s2)cc(N2CCN(CCO)CC2)n1 [Compound 1, N-(2-chloro-6-methylphenyl)-2-((6-(4-(2-hydroxyethyl)piperazin-1-yl)-2-methylpyrimidin-4-yl)amino)thiazole-5-carboxamide, reference compound] | 26300 | < 0.0512 | < 0.0512 | – | – | – | – | – | – | – | – | – | – | – | – | – | – | – | – | –
2 | Cc1nc(Nc2ncc(C(=O)Nc3c(C)cccc3Cl)s2)cc(N2CCN(CCOC(=O)[C@H](C)N)CC2)n1 [Compound 3] | – | – | – | 5 | < 0.39 | 7.0 | > 53.8 | 200 | 21 | > 7.7 | 285 | 3 | 163 | – | – | – | – | – | – | –
3 | CC(=O)OCCN1CCN(c2cc(Nc3ncc(C(=O)Nc4c(C)cccc4Cl)s3)nc(C)n2)CC1 [Compound 16] | – | – | – | −11 | < 0.33 | 2.6 | > 16.7 | −21 | 5.5 | > 6.4 | 169 | 2.1 | 46 | no activity | inhibited comparably to dasatinib | < 0.0512 | inhibited comparably to dasatinib | completely metabolized | < 5 | < 0.0512
4 | CN[C@@H]1C[C@H]2O[C@@](C)([C@@H]1OC)n1c3ccccc3c3c4c(c5c6ccccc6n2c5c31)C(=O)NC4 [Staurosporine, staurosporine] | – | 4.77 | – | – | – | – | – | – | – | – | – | – | – | – | – | – | – | – | – | –
